According to ChEMBL document CHEMBL4673395, “Discovery of PIPE-359, a Brain-Penetrant, Selective M Receptor Antagonist with Robust Efficacy in Murine MOG-EAE” (ACS Med Chem Lett, 2021):

Legend:
[1] = Metabolic stability in rat liver microsomes assessed as parent compound remaining at 1 uM measured at 15 mins by LC-MS/MS analysis; type: ADME, Microsome; conditions: read-out: Stabilty
[2] = molecular target: T1, Muscarinic acetylcholine receptor M1 (Homo sapiens, UniProt P11229); assay: Antagonist activity at human recombinant muscarinic receptor M1 expressed in CHO-K1 cells assessed as EC80 acetylcholine-induced calcium flux incubated for 30 mins; type: functional, cell-based
T1 sequence (P11229 whole entry): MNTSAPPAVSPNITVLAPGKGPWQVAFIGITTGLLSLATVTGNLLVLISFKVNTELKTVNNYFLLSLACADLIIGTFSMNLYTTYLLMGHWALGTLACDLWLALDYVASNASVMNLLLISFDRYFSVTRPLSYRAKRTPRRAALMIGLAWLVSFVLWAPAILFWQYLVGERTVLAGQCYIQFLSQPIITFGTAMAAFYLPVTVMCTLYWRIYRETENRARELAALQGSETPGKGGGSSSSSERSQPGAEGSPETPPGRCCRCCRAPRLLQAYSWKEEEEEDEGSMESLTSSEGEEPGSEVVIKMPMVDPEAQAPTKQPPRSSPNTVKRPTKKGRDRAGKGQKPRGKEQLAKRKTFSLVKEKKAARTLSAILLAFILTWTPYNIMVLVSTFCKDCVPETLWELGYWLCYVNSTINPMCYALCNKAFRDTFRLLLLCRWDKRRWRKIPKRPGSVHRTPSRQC

[3] = Fraction unbound rat plasma at 10 mg/kg, po measured after 2 hrs by LC-MS/MS; type: ADME, organism-based; conditions: in vivo
[4] = In vivo receptor occupancy at muscarinic M1 receptor in myelin oligodendrocyte glycoprotein (MOG)-induced experimental autoimmune encephalitis C57BL/6 mouse model assessed as decrease in occupancy at 30 mg/kg, po measured after 24 hrs; type: functional
[5] = Fraction unbound in rat plasma at 10 mg/kg, po measured by LC-MS/MS; type: ADME, organism-based
[6] = molecular target: Voltage-gated inwardly rectifying potassium channel KCNH2 (Homo sapiens, UniProt Q12809); assay: Inhibition of human ERG expressed in HEK293 cells at 3 uM by patch clamp assay; type: cell-based; conditions: hek293, 3 µM
[7] = Brain to plasma permeability coefficient, Kp of the compound in rat at 10 mg/kg, po measured after 2 hrs by LC-MS/MS; type: ADME, organism-based; conditions: read-out: K(p,uu,brain)
[8] = Plasma concentration in rat at 10 mg/kg, po measured after 2 hrs by LC-MS/MS; type: ADME, organism-based
[9] = molecular target: Muscarinic acetylcholine receptor M3 (Homo sapiens, UniProt P20309); assay: Antagonist activity at human recombinant muscarinic receptor M3 expressed in CHO-K1 cells assessed as EC80 acetylcholine-induced calcium flux incubated for 30 mins; type: functional, cell-based; conditions: read-out: pIC50 (converted)
[10] = molecular target: T2, Muscarinic acetylcholine receptor M2 (Homo sapiens, UniProt P08172); assay: Antagonist activity at human recombinant muscarinic receptor M2 expressed in CHO-K1 cells assessed as EC80 acetylcholine-induced calcium flux incubated for 30 mins; type: functional, cell-based; conditions: read-out: pIC50 (converted)
T2 sequence (P08172 whole entry): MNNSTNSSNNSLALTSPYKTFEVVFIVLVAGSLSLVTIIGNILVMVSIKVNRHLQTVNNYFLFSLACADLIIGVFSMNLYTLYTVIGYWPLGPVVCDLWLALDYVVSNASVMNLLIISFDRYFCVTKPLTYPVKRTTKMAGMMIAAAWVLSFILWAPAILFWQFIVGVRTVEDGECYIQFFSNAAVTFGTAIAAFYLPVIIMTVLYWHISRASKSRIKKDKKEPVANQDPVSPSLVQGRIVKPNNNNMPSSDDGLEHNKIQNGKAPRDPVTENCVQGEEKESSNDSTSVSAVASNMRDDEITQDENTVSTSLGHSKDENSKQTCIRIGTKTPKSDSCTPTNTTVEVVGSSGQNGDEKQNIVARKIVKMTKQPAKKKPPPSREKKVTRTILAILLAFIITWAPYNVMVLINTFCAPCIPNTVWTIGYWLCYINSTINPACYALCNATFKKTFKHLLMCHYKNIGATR

[11] = Apparant permeability across apical to basolateral side in dog MDCK-MDR1 cells; type: ADME, cell-based, Canis lupus familiaris

Sequence of Muscarinic acetylcholine receptor M3 (P20309 whole entry): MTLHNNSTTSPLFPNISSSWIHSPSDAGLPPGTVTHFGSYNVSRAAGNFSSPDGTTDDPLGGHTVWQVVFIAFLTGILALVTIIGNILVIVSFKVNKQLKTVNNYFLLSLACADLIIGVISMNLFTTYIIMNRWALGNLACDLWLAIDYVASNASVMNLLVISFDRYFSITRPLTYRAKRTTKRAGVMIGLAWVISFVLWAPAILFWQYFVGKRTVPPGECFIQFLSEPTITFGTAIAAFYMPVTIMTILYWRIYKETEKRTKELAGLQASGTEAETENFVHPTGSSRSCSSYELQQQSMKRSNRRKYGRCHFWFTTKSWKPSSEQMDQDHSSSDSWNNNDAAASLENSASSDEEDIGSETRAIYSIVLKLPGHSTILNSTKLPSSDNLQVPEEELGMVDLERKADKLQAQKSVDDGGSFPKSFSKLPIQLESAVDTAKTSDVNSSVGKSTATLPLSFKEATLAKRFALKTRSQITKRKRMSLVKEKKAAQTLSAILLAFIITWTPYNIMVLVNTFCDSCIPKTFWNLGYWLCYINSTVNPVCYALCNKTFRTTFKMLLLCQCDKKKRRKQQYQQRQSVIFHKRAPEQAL
Sequence of Voltage-gated inwardly rectifying potassium channel KCNH2 (Q12809 whole entry): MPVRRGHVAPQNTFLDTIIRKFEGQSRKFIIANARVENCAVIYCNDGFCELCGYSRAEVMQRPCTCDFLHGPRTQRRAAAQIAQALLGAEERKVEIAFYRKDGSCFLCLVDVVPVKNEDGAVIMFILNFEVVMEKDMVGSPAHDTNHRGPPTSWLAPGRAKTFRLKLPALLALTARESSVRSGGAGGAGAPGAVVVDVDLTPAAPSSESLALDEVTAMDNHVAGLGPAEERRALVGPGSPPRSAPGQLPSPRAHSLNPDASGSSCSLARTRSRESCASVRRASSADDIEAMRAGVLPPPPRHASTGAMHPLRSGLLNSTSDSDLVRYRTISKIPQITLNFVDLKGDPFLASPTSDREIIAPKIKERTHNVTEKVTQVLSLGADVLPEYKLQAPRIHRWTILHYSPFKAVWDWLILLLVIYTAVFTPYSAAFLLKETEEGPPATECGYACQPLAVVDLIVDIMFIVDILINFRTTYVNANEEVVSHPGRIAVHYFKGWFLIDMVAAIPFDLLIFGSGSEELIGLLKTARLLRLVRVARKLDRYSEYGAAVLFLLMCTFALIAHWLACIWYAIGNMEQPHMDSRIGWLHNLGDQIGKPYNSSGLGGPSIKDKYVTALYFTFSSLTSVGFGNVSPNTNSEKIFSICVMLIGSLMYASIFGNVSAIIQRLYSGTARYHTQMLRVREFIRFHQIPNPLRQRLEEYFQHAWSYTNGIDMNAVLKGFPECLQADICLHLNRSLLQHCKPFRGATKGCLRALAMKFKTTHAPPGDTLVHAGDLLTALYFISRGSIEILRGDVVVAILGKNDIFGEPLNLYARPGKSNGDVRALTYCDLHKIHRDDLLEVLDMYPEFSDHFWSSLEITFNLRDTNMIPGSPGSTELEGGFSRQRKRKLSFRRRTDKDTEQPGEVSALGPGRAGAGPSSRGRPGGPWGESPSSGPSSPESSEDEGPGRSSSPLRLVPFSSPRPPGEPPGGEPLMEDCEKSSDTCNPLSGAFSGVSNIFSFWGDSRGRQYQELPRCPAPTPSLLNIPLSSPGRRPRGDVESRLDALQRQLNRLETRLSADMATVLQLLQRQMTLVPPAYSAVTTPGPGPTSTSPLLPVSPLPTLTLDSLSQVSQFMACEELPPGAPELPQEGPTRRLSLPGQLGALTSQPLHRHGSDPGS

For `Cc1cc(F)cnc1N1CCN(C(=O)CCCc2cccc3ncoc23)[C@@H](C)C1`, which remaining at 0.25 h, 1 µM [1] is on record?
The remaining at 0.25 h, 1 µM was 0%.

For `Cc1cc(F)cnc1N1CCN(C(=O)CNCc2cccc3ncsc23)[C@@H](C)C1`, which IC50 ([2]; read-out: IC50) is on record?
Its IC50 is 3000 nM.

Which “Cp(f)” value [3] does the source give for `N#Cc1ccc(N2CCN(C(=O)CCS(=O)(=O)c3cccc4ncsc34)CC2)nc1` here?
The value was 13 nM.

What about the remaining at 0.25 h, 1 µM [1] of the same compound?
The remaining at 0.25 h, 1 µM was 59%.

And the Occ [4]?
The Occ was 50%.

What about the fraction unbound [5] of the same compound?
Its fraction unbound is 0.15.

What about the IC50 ([2]; read-out: IC50) of the same compound?
Its IC50 is 5.8 nM.

What about the inhibition (INH) [6] of the same compound?
The inhibition (INH) was 69%.

What about the Kp uu at 2 h [7] of the same compound?
The Kp uu at 2 h was 0.17.

And the concentration at 2 h [8]?
The concentration at 2 h was 89 nM.

Which IC50 ([2]; read-out: IC50) does the source give for `C[C@@H]1CN(c2ccncc2Cl)CCN1C(=O)CCCc1cccc2ncccc12` here?
The IC50 was 38 nM.

With `Cc1cc(F)cnc1N1CCN(C(=O)CCCc2cccc3ncncc23)[C@@H](C)C1` as the compound, how does the remaining at 0.25 h, 1 µM [1] read?
Its remaining at 0.25 h, 1 µM is 0%.

What about the IC50 ([2]; read-out: IC50) of the same compound?
The IC50 was 83 nM.

Which IC50 ([2]; read-out: IC50) does the source give for `Cc1cc(F)cnc1N1CCN(C(=O)CCCc2cccc3cncnc23)[C@@H](C)C1` here?
The IC50 was over 20000 nM.

What about the IC50 ([2]; read-out: pIC50 (converted)) of the same compound?
The IC50 was over 10000 nM.

For `CC1CN(C(=O)CCS(=O)(=O)c2cccc3ncsc23)CCN1c1ccc(C#N)cn1` (racemic), which IC50 ([2]; read-out: IC50) is on record?
Its IC50 is 5.8 nM.

With `Cc1cc(F)cnc1N1CCN(C(=O)CCCc2cccc3ncccc23)[C@H](C)C1` as the compound, how does the IC50 [9] read?
The IC50 was 501 nM.

What about the IC50 [10] of the same compound?
The IC50 was 631 nM.

With `O=C(CCS(=O)(=O)c1cccc2ncsc12)N1CCN(c2ccnc(C(F)(F)F)c2)CC1` as the compound, how does the IC50 ([2]; read-out: IC50) read?
Its IC50 is 4800 nM.

With `N#Cc1ccc(N2CC3CCC(C2)N3C(=O)CCS(=O)(=O)c2cccc3ncsc23)nc1` as the compound, how does the IC50 ([2]; read-out: IC50) read?
Its IC50 is 8.7 nM.

For `C[C@@H]1CN(C(=O)CCS(=O)(=O)c2cccc3ncsc23)[C@@H](C)CN1c1ccc(C#N)cn1` (racemic), which IC50 ([2]; read-out: IC50) is on record?
Its IC50 is 330 nM.

With `Cc1cc(F)cnc1N1CCN(C(=O)CCCc2cccc3ncccc23)[C@@H](C)C1` as the compound, how does the remaining at 0.25 h, 1 µM [1] read?
The remaining at 0.25 h, 1 µM was 0.2%.

And the Papp A→B [11]?
Its Papp A→B is 8 ×10⁻⁶ cm/s.

What about the IC50 [9] of the same compound?
The IC50 was 1260 nM.

What about the IC50 [10] of the same compound?
Its IC50 is 2000 nM.

Which IC50 ([2]; read-out: IC50) does the source give for `Cc1cc(F)cnc1N1CCN(C(=O)COCc2cccc3ncsc23)[C@@H](C)C1` here?
The IC50 was 3600 nM.

For `Cc1cc(F)cnc1N1CCN(C(=O)CCCc2cccc3nc(N)sc23)[C@@H](C)C1`, which remaining at 0.25 h, 1 µM [1] is on record?
Its remaining at 0.25 h, 1 µM is 3.7%.

Which IC50 ([2]; read-out: IC50) does the source give for `Cc1ccncc1N1CCN(C(=O)CCCc2cccc3ncccc23)[C@H](C)C1` here?
Its IC50 is 20 nM.

For `N#Cc1ccc(C2=CCN(C(=O)CCS(=O)(=O)c3cccc4ncsc34)CC2)nc1`, which IC50 ([2]; read-out: IC50) is on record?
Its IC50 is 80 nM.

Which IC50 ([2]; read-out: IC50) does the source give for `N#Cc1ccc(C2CCN(C(=O)CCS(=O)(=O)c3cccc4ncsc34)CC2)nc1` here?
Its IC50 is 19 nM.

For `N#Cc1ccc(N2CC3CCC2CN3C(=O)CCS(=O)(=O)c2cccc3ncsc23)nc1` (racemic), which IC50 ([2]; read-out: IC50) is on record?
Its IC50 is 25 nM.

With `Cc1cc(F)cnc1N1CCN(C(=O)CCS(=O)(=O)c2cccc3ncsc23)[C@@H](C)C1` as the compound, how does the remaining at 0.25 h, 1 µM [1] read?
Its remaining at 0.25 h, 1 µM is 9.6%.

And the IC50 ([2]; read-out: IC50)?
Its IC50 is 71 nM.

For `COc1cc(N2CCN(C(=O)CCCc3cccc4ncccc34)CC2)ccn1`, which IC50 ([2]; read-out: IC50) is on record?
The IC50 was 300 nM.

With `Cc1cc(F)cnc1N1CCN(C(=O)CCCS(=O)(=O)c2cccc3ncsc23)[C@@H](C)C1` as the compound, how does the IC50 ([2]; read-out: IC50) read?
The IC50 was 1900 nM.
